Reference: publication PMC2364081, “Antagonists of retinoic acid receptors (RARs) are potent growth inhibitors of prostate carcinoma cells” (British Journal of Cancer, 2001)
pEC50, pIC50, pKd: −log10 of the molar value.

Columns and labels:
[1] = molecular target: T1, RARα (Homo sapiens, UniProt P10276); test: Binding to baculovirus-expressed RARα; parameters: made in house; settings: baculovirus-expressed receptor
T1 sequence (P10276 1-462): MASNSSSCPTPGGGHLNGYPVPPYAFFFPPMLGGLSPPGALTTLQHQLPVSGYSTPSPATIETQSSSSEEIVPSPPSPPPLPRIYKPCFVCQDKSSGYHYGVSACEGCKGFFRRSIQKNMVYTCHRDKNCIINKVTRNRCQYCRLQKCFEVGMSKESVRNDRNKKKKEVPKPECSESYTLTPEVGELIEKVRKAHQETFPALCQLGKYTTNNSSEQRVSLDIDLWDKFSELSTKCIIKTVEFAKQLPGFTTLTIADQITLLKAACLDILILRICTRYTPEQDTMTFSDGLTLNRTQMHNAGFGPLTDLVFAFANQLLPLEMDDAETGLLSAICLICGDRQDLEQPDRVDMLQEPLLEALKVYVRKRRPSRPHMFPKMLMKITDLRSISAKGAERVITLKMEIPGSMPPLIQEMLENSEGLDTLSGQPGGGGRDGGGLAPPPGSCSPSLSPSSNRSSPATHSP
Excerpt: (§1) Prostate cancer is one of the most common cancers in European and American males and has a high mortality rate (Landis et al, 1998; Rosenthal, 1998). Early disease is managed conservatively in Europe although in selected patients surgery is curative. In advanced disease, androgen ablation can produce symptomatic improvement, but the tumour often re-emerges in an androgen- independent and incurable form. One proposed treatment for androgen-independent prostate carcinoma is differentiation ther- apy, in which agents such as all-trans-retinoic acid (ATRA), 9-cis- retinoic acid and 1, 25-dihydroxyvitamin D3 (D3 ) are used to induce growth arrest, differentiation and sometimes apoptosis of the tumour cells (Liang et al, 1999; de Vos et al, 1997; Skowronski et al, 1994; Hedlund et al, 1997). ATRA and synthetic analogues exert their biological effects by binding to two families of retinoid receptors, […]. These are ligand-dependent transcription factors of the steroid/thyroid hormone nuclear receptor superfamily (Chambon 1994; Boehm et al, 1995). Activated RARs bind to retinoic acid-responsive elements (RAREs) in the promoters of genes and thus regulate gene expression. They also antagonize the activity of the tran- scription factor AP1 and thereby down-regulate the expression of some AP1-activated genes (Nagpal et al, 1995). One approach to unravelling the contributions of RAR sub-types to these actions has been the development of synthetic retinoids with selective activities at individual RARs and RXRs. For example, the diaryl- acetylenic retinoids allow separation of transactivation and AP1 antagonism functions at RAR (Nagpal et al, 1995). Recently, compounds that are selective for particular RAR sub-types have been synthesized: these include both agonists and antagonists (Chandraratna, 1995; Teng et al, 1999; Johnson et al, 1999). The functional selectivity of these compounds may open the way to achieving differentiation or apoptosis of tumour cells with minimal systemic side effects (Chandraratna, 1995). Cell lines that are commonly used in the evaluation of investiga- tional agents for prostate cancer include LNCaP, DU-145 and PC- 3. […] These lines are relatively insensitive to growth inhibition and induction of apoptosis by ATRA and by synthetic agonists. […] Fenretinide (4HPR) induces apoptosis of LNCaP and of PC-3 cells at 1-5 M and 25 µM, respectively (Pienta et al, 1993; Heish and Wu, 1997). Pfahl and colleagues examined the growth inhibitory effects of a panel of receptor-selective retinoids against DU145 and PC-3 cells and achieved complete growth inhibition and induction of apoptosis between 1 M and 10 M (Lu et al, 1999). […] Antagonists of retinoic acid receptors (RARs) are potent growth inhibitors of prostate carcinoma cells LA Hammond1 , CH Van Krinks2 , J Durham2 , SE Tomkins2 , RD Burnett3 , EL Jones1 , RAS Chandraratna3 and G Brown2 Divisions of 1 Cancer Studies and of 2 Immunity and Infection, University of Birmingham Medical School, Edgbaston, Birmingham B15 2TT, UK and 3 Retinoid Research, Allergan Inc., Irvine, California, USA Summary Novel synthetic antagonists of retinoic acid receptors (RARs) have been developed. To avoid interference by serum retinoids when testing these compounds, we established serum-free grown sub-lines (>3 years) of the prostate carcinoma lines LNCaP, PC3 and DU145. […] A component(s) of serum and of LNCaP-conditioned medium diminishes the activity of antagonists: this factor is not the most likely candidates IGF-1 and EGF. In vitro studies of RAR antagonists together with data from RAR-null mice lead to the hypothesis that RAR-regulated gene transcription is necessary for the survival and maintenance of prostate epithelium. […]

[2] = molecular target: T2, RARβ (Homo sapiens, UniProt P10826); test: Binding to baculovirus-expressed RARβ; parameters: made in house; settings: baculovirus-expressed receptor
T2 sequence (P10826 1-455): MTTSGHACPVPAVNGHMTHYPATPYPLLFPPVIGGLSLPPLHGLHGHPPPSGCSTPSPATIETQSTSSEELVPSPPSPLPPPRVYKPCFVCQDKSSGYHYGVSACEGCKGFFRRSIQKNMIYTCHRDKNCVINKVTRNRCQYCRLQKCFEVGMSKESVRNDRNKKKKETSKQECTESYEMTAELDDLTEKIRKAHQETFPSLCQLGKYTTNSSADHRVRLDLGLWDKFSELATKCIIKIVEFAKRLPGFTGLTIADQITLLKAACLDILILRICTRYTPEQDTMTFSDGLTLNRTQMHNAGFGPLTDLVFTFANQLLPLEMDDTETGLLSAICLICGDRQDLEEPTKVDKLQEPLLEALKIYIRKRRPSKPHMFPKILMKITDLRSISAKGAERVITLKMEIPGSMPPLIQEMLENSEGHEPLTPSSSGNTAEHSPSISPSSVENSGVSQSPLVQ
Excerpt: as §1

[3] = molecular target: T3, RARγ (Homo sapiens, UniProt P13631); test: Binding to baculovirus-expressed RARγ; parameters: made in house; settings: baculovirus-expressed receptor
T3 sequence (P13631 1-454): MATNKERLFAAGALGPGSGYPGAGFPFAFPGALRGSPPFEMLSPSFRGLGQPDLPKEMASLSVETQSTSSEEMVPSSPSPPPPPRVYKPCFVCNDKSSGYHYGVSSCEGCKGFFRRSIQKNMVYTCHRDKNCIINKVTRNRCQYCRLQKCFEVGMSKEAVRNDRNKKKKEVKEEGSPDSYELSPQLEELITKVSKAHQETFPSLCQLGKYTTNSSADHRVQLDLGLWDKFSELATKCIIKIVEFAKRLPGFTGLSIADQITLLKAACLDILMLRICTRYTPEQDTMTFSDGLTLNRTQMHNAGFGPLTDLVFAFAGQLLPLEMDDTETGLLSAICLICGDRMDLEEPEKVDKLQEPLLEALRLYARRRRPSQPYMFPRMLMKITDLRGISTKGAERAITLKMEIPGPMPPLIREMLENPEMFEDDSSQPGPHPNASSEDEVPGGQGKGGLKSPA
Excerpt: as §1

[4] = molecular target: T1, RARα; test: Transactivation by RARα in doubly transfected CV-1 cells (MTV-TREp-LUC reporter); assay type: cell-based; parameters: expressed in transfected cells; host or cells: CV-1 cells
Excerpt: (§2) Prostate cancer is one of the most common cancers in European and American males and has a high mortality rate (Landis et al, 1998; Rosenthal, 1998). Early disease is managed conservatively in Europe although in selected patients surgery is curative. In advanced disease, androgen ablation can produce symptomatic improvement, but the tumour often re-emerges in an androgen- independent and incurable form. One proposed treatment for androgen-independent prostate carcinoma is differentiation ther- apy, in which agents such as all-trans-retinoic acid (ATRA), 9-cis- retinoic acid and 1, 25-dihydroxyvitamin D3 (D3 ) are used to induce growth arrest, differentiation and sometimes apoptosis of the tumour cells (Liang et al, 1999; de Vos et al, 1997; Skowronski et al, 1994; Hedlund et al, 1997). ATRA and synthetic analogues exert their biological effects by binding to two families of retinoid receptors, the RARs (RAR, RAR and RAR) and the RXRs (RXR, RXR and RXR). These are ligand-dependent transcription factors of the steroid/thyroid hormone nuclear receptor superfamily (Chambon 1994; Boehm et al, 1995). Activated RARs bind to retinoic acid-responsive elements (RAREs) in the promoters of genes and thus regulate gene expression. They also antagonize the activity of the tran- scription factor AP1 and thereby down-regulate the expression of some AP1-activated genes (Nagpal et al, 1995). One approach to unravelling the contributions of RAR sub-types to these actions has been the development of synthetic retinoids with selective activities at individual RARs and RXRs. For example, the diaryl- acetylenic retinoids allow separation of transactivation and AP1 antagonism functions at RAR (Nagpal et al, 1995). Recently, compounds that are selective for particular RAR sub-types have been synthesized: these include both agonists and antagonists (Chandraratna, 1995; Teng et al, 1999; Johnson et al, 1999). The functional selectivity of these compounds may open the way to achieving differentiation or apoptosis of tumour cells with minimal systemic side effects (Chandraratna, 1995). […]

[5] = molecular target: T2, RARβ; test: Transactivation by RARβ in doubly transfected CV-1 cells (MTV-TREp-LUC reporter); assay type: cell-based; parameters: expressed in transfected cells; host or cells: CV-1 cells; key to EC50 transactivation RARβ: NA: inactive; WA: weak partial agonist
Excerpt: as §2

[6] = molecular target: T3, RARγ; test: Transactivation by RARγ in doubly transfected CV-1 cells (MTV-TREp-LUC reporter); assay type: cell-based; parameters: expressed in transfected cells; host or cells: CV-1 cells
Excerpt: as §2, with “1995).” for “1995). One approach to unravelling the contributions of RAR sub-types to these actions has been the development of synthetic retinoids with selective activities at individual RARs and RXRs. For example, the diaryl- acetylenic retinoids allow separation of transactivation and AP1 antagonism functions at RAR (Nagpal et al, 1995). Recently, compounds that are selective for particular RAR sub-types have been synthesized: these include both agonists and antagonists (Chandraratna, 1995; Teng et al, 1999; Johnson et al, 1999). The functional selectivity of these compounds may open the way to achieving differentiation or apoptosis of tumour cells with minimal systemic side effects (Chandraratna, 1995).”

[7] = tested on: LNCaP cells; settings: ref Pienta et al, 1993; Heish and Wu, 1997; cited from earlier work
[8] = tested on: PC-3 cells; parameters: method as in Pienta et al, 1993; Heish and Wu, 1997; settings: ref Pienta et al, 1993; Heish and Wu, 1997; cited from earlier work
[9] = tested on: LNCaP ITS+ cells; test: Plate colony formation (clonal proliferation) assay, serum-free (ITS+)-grown LNCaP; assay type: cell-based, human
Excerpt: as §1

[10] = tested on: PC3 ITS+ cells; test: Plate colony formation assay, serum-free (ITS+)-grown PC3; assay type: cell-based, human; settings: 14 days
Excerpt: as §2

[11] = tested on: DU145 ITS+ cells; test: Plate colony formation assay, serum-free (ITS+)-grown DU145; assay type: cell-based, human; settings: 14 days
Excerpt: as §2

[12] = tested on: LNCaP, PC3 and DU145 cells; test: Plate colony formation assay, stated over the three serum-free grown lines; assay type: cell-based, human
Excerpt: as §1

[13] = tested on: FBS-grown LNCaP, DU145 and PC3 cells; test: Plate colony formation assay, stated over the three FBS-grown lines; assay type: cell-based, human; settings: 100 nM
Excerpt: as §2, with “1995).” for “1995). One approach to unravelling the contributions of RAR sub-types to these actions has been the development of synthetic retinoids with selective activities at individual RARs and RXRs. For example, the diaryl- acetylenic retinoids allow separation of transactivation and AP1 antagonism functions at RAR (Nagpal et al, 1995). Recently, compounds that are selective for particular RAR sub-types have been synthesized: these include both agonists and antagonists (Chandraratna, 1995; Teng et al, 1999; Johnson et al, 1999). The functional selectivity of these compounds may open the way to achieving differentiation or apoptosis of tumour cells with minimal systemic side effects (Chandraratna, 1995).”

[14] = tested on: HL60 cells; test: ATRA-induced differentiation of HL60 cells to neutrophils (nitroblue tetrazolium reduction); assay type: cell-based, human; settings: antagonist at 100 nM added with 100 nM ATRA
Excerpt: as §2, with “1995).” for “1995). One approach to unravelling the contributions of RAR sub-types to these actions has been the development of synthetic retinoids with selective activities at individual RARs and RXRs. For example, the diaryl- acetylenic retinoids allow separation of transactivation and AP1 antagonism functions at RAR (Nagpal et al, 1995). Recently, compounds that are selective for particular RAR sub-types have been synthesized: these include both agonists and antagonists (Chandraratna, 1995; Teng et al, 1999; Johnson et al, 1999). The functional selectivity of these compounds may open the way to achieving differentiation or apoptosis of tumour cells with minimal systemic side effects (Chandraratna, 1995).”

[15] = tested on: HL60 cells; test: Clonal growth of single serum-free grown HL60 cells in microtitre wells; assay type: cell-based, human; settings: 100 nM
Excerpt: as §1

Compound: CC1(C)CCSc2ccc(C#Cc3ccc(C(=O)O)cn3)cc21 [AGN190299]
- pKd [1]: 6.21
- pKd [2]: 7.39
- pKd [3]: 7.24
- pEC50 [4]: < 6.00
- pEC50 [5]: 7.74
- pEC50 [6]: 7.38

Compound: CC1=C(/C=C/C(C)=C/C=C/C(C)=C/C(=O)Nc2ccc(O)cc2)C(C)(C)CCC1 [Fenretinide]
- concentration inducing apoptosis [7]: 1 to 5 µM
- concentration inducing apoptosis [8]: 25 µM

Compound: EGF: Epidermal growth factor (R & D, Abingdon, UK) (NSDSECPLSHDGYCLHDGVCMYIEALDKYACNCVVGYIGERCQYRDLKWWELR; UniProt P01133 971-1023, looked up)
- reversal of the inhibition of colony formation by 100 nM AGN194310 ([9]; EGF at 1, 10 and 20 ng/ml): did not reverse

Compound: Cc1ccc(C2=CC(C)(C)Oc3c(Br)cc(C(=O)Nc4ccc(C(=O)O)c(F)c4)cc32)cc1 [AGN194301]
- pIC50 ([9]; LNCaP, serum-free (ITS+), 14 days): 6.69
- pIC50 [10]: 6.63
- pIC50 [11]: 6.70
- inhibition of colony formation ([12]; 100 nM, three lines in ITS+ medium): 42-74%
- pIC50 ([12]; stated over all three serum-free grown lines, read-out: concentration inhibiting colony formation by 50% (IC50)): ~6.70
- inhibition of colony formation [13]: 0-19%
- percentage of mature cells [14]: 1%
- viability of the single cells [15]: > 95%
- effect on clonal growth of HL60 cells ([15]; 4 days): did not adversely affect
- number of viable cells at day 4 ([15]; control 18): 22
- cloning efficiency ([15]; same as untreated): 90-93%
- pKd [1]: 8.52
- pKd [2]: 6.49
- pKd [3]: 5.14

Compound: CC1(C)CCC(C)(C)c2cc(C(=O)Nc3cc(F)c(C(=O)O)c(F)c3)c(O)cc21 [AGN194078]
- pKd [1]: 8.40
- pKd [2]: < 5.30
- pKd [3]: < 5.30
- pEC50 [4]: 6.85
- EC50 transactivation RARβ [5]: WA
